From patent US11413273B2, “Prophylactic or therapeutic agent for pulmonary hypertension comprising unsaturated 5-membered heterocycle-containing compound” (TOHOKU UNIVERSITY, priority 2016, dated 2022)

Assays:
[1] = test system: pulmonary artery smooth muscle cells derived from patients with idiopathic pulmonary arterial hypertension (IPAH-PASMCs); assay: ability to suppress the proliferation of pulmonary artery smooth muscle cells from patients with pulmonary hypertension (MTT assay); assay type: cell-based, human; settings: for suppressive effect on the proliferation of pulmonary artery smooth muscle cells: same method as Example 1, data not shown; for day 2/day 0 cell number ratio (MTT cell viability): 48 hours, IPAH-PASMC line 1, 10% FBS control 1.40
Method: The following compounds were used to assess the abilities of these compounds to suppress the proliferation of pulmonary artery smooth muscle cells from patients with pulmonary hypertension (IPAH-PASMC line: 1)
Those compounds were obtained by synthesis in the Faculty of Pharmaceutical Sciences, Tohoku University. Specifically, first, 66 μl each of pulmonary artery smooth muscle cells derived from patients with idiopathic pulmonary arterial hypertension (IPAH-PASMCs) suspended in a 10% FBS medium (DMEM supplemented with 10% FBS) were seeded in a 96-well plate at 50,000 cells/ml (day −1). 24 Hours after the cell seeding (the time point was defined as day 0), 33 μl each of 300 nM, 3 μM, and 15 μM solutions of CEL-1 to CEL-8, CEL-10, CEL-13 to CEL-15, and CEL-19 in 10% FBS containing 1% DMSO were added to the wells so that the final concentrations were 100 nM, 1 μM, and 5 μM, respectively. As a control, 33 μl of 10% FBS containing 1% DMSO was added in place of CEL-1 to CEL-8, CEL-10, CEL-13 to CEL-15, and CEL-19. On day 0 (immediately before the addition of each of CEL-1 to CEL-8, CEL-10, CEL-13 to CEL-15, and CEL-19), a cell viability was confirmed by performing CellTiter 96 (trademark) AQueous One Solution Cell Proliferation Assay, promega MTT assay. Further, 48 hours after the addition of each of CEL-1 to CEL-8, CEL-10, CEL-13 to CEL-15, and CEL-19 (day 2), the MTT assay was performed again to observe a change in cell viability. Thus, a cell proliferation-suppressing effect was assessed.
In addition, in the case where R^2 in the general formula (I) represents an alkyl group, in order to explore an association between the length of the alkyl group and a pulmonary artery smooth muscle cell proliferation-suppressing effect, a test on an ability to suppress the proliferation of the pulmonary artery smooth muscle cells from patients with pulmonary hypertension (IPAH-PASMC line:1) was performed three times, and the lengths of alkyl groups of the respective compounds and the results of stimulation with the compounds at a concentration of 5 μM for 48 hours (averages of day 2/day 0 cell number ratios) were shown graphically. A Pearson's correlation test was performed on the lengths of the alkyl groups and the day 2/day 0 cell number ratios. As a result, a significant correlation was found with a P-value of 0.0298.

[2] = test system: hypoxia-induced pulmonary hypertension mouse model; assay: hypoxia-induced pulmonary hypertension mouse model; assay type: in vivo, C57BL/6 mice; settings: 10 mg/kg/day continuous subcutaneous infusion
Method: Next, the therapeutic effect of CEL-3 on pulmonary hypertension was assessed in vivo. Specifically, the influence of CEL-3 on a hypoxia-induced pulmonary hypertension mouse model was investigated. The pulmonary hypertension mouse model was generated by breeding 9-week-old male C57BL/6 mice (n=14) in a hypoxic chamber having an oxygen concentration of from 8% to 12%. Before being housed in the hypoxic chamber, the mice were implanted with an osmotic pump containing CEL-3 dissolved with 50% DMSO, and were administered CEL-3 at 10 mg/kg/day by continuous subcutaneous infusion. The Vehicle group was administered a DMSO solution at the same concentration with an osmotic pump. The mice were bred in the hypoxic chamber for 3 weeks and then sacrificed to measure a right ventricular systolic pressure (RVSP) with a pressure catheter 1.2F (Transonic Scisense, US). In addition, after formalin fixation, the right ventricle and the left ventricle were separated to measure a right ventricle/(left ventricle plus septum) weight ratio RV/[LV+S]). Then, the extent of pulmonary hypertension was assessed on the basis of those results. The body weights of the Vehicle group and the CEL-3 administration group before the test were each 25.6±0.3 g. In addition, the body weights of the Vehicle group and the CEL-3 administration group after the test were 24.2±0.8 g and 23.9±0.7 g, respectively.

[3] = test system: SU5416/hypoxia-induced pulmonary hypertension rat model; assay: SU5416/hypoxia-induced pulmonary hypertension rat model; assay type: in vivo, Sprague-Dawley rats; settings: 3 mg/kg intraperitoneally daily for 2 weeks
Method: The pulmonary hypertension rat model was generated by: subcutaneously injecting 6-week-old male Sprague-Dawley rats ([…]) with SU5416 at 20 mg/kg; and then breeding the rats in a hypoxic chamber having an oxygen concentration of from 8% to 12% for 3 weeks followed by breeding the rats under normoxia for 2 weeks. After the hypoxic stimulation for 3 weeks, the rats were intraperitoneally injected with CEL-3 dissolved with 10% DMSO at 3 mg/kg daily for 2 weeks. The Vehicle group was intraperitoneally injected with a DMSO solution at the same concentration. The rats were treated with CEL-3 for 2 weeks and then sacrificed to measure a right ventricular systolic pressure (RVSP) with a pressure catheter 1.6F (Transonic Scisense, US). In addition, after formalin fixation, the right ventricle and the left ventricle were separated to measure a right ventricle/(left ventricle plus septum) weight ratio (RV/[LV+S]). Then, the extent of pulmonary hypertension was assessed on the basis of those results. The body weights of the Control group, the Vehicle group, and the CEL-3 administration group before the test were 160.8±1.7 g, 163.4±2.5 g, and 158.9±1.9 g, respectively. In addition, the body weights of the Control group, the Vehicle group, and the CEL-3 administration group after the test were 355.4±5.1 g, 264.91±9.3 g, and 260.0±11.1 g, respectively.

[4] = test system: transcription factor NF-κB; settings: Non-patent Literature 2 and 3; cited from earlier work
[5] = test system: pulmonary artery smooth muscle cells; settings: previous report, Non-patent Literature 3; cited from earlier work
[6] = biological target: zinc finger protein ZFC3H1 (Homo sapiens, UniProt O60293); settings: Non-patent Literature 2; cited from earlier work
Chain of zinc finger protein ZFC3H1 (O60293 whole entry): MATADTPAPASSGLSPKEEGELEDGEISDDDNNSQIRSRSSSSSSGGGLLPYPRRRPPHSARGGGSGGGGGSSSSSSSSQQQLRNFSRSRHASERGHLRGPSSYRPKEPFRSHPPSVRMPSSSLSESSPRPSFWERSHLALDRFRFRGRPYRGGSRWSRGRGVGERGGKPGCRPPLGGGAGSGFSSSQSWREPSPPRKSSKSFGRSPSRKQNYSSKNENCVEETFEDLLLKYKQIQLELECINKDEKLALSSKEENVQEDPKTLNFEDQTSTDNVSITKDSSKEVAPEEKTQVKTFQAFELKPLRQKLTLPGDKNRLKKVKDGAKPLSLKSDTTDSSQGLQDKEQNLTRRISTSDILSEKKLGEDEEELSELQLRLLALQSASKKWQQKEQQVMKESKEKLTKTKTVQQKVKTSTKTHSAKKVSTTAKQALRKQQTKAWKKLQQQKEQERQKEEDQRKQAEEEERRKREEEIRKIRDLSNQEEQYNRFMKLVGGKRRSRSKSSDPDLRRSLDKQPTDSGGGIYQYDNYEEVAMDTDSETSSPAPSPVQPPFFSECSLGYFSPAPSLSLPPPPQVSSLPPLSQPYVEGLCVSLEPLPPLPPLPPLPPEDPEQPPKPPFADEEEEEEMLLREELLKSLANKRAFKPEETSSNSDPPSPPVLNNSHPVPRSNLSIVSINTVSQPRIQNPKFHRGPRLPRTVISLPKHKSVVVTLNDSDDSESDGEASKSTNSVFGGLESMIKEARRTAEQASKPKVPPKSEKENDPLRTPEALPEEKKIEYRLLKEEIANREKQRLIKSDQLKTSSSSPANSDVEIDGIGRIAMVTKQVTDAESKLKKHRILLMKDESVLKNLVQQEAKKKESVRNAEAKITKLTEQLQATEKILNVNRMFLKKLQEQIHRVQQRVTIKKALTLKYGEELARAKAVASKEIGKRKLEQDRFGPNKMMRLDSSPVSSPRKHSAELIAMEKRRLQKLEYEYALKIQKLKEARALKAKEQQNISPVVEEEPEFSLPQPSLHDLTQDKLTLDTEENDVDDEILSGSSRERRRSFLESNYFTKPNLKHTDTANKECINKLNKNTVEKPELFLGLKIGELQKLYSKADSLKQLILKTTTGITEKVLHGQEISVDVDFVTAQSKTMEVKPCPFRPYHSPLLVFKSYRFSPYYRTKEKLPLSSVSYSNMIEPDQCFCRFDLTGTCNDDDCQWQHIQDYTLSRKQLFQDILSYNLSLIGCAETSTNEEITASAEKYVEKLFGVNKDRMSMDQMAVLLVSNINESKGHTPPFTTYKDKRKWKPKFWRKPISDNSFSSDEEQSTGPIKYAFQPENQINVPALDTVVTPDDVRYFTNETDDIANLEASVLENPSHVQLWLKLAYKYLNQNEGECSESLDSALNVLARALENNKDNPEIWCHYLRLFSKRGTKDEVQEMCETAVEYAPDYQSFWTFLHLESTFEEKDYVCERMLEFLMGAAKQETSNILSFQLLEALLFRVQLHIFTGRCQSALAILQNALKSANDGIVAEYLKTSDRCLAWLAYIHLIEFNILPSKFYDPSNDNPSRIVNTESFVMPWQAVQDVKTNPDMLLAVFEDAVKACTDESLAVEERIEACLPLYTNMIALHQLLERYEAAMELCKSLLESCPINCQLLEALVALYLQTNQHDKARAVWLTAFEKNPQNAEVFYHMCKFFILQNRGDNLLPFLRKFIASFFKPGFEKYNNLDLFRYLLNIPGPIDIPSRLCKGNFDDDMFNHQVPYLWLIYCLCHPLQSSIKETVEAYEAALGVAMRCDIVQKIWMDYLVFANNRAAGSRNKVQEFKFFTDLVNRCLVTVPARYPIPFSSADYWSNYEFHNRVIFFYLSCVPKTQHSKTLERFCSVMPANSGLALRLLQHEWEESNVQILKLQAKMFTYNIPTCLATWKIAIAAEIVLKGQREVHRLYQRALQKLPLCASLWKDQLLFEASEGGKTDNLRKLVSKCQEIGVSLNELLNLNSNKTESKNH

[7] = final concentration 100 nm (so in the source)
[8] = 3 weeks hypoxia, vs control group (FIG. 3)

With `O=C(/C=C/c1ccc(O)c(O)c1)OCCc1ccccc1` [caffeic acid phenethyl ester, reference compound] the “suppressive effect on the proliferation of pulmonary artery smooth muscle cells” value (“suppressive effect on the proliferation” for short) ([1]; final concentration 5 μM) was “not sufficiently suppressed”.
With `CCCCCCc1cc(Cl)c(O)c(C(=O)c2c[nH]c(Cl)c2Cl)c1O` [CEL-19] the “day 2/day 0 cell number ratio (MTT cell viability)” value (“day 2/day 0 cell number ratio” below) ([1]; final concentration 1 μM) was 1.24, the “day 2/day 0 cell number ratio” value ([1]; final concentration 5 μM) was 0.94 and the “day 2/day 0 cell number ratio” value [1, 7] was 1.31.
In the case of `CCCCCCc1cc(Br)c(O)c(C(=O)c2cc(Cl)c(Cl)[nH]2)c1O` [CEL-15], the “day 2/day 0 cell number ratio” value ([1]; final concentration 1 μM) is reported as 0.78, the “day 2/day 0 cell number ratio” value ([1]; final concentration 5 μM) is reported as 0.54 and the “day 2/day 0 cell number ratio” value [1, 7] is reported as 1.26.
For `CCCCCCc1cc(C)c(O)c(C(=O)c2cc(Cl)c(Cl)[nH]2)c1O` [CEL-10], the “day 2/day 0 cell number ratio” value ([1]; final concentration 1 μM) was 0.68, the “day 2/day 0 cell number ratio” value ([1]; final concentration 5 μM) was 0.48 and the “day 2/day 0 cell number ratio” value [1, 7] was 1.16.
With `Cc1cc(Cl)c(O)c(C(=O)c2cc(Cl)c(Cl)[nH]2)c1O` [CEL-3] the “day 2/day 0 cell number ratio” value ([1]; final concentration 1 μM) was 0.99, the “day 2/day 0 cell number ratio” value ([1]; final concentration 5 μM) was 0.81 and the “day 2/day 0 cell number ratio” value [1, 7] was 1.25. For the same molecule, the “increase in right ventricle/(left ventricle plus septum) weight ratio (RV/[LV+S])” value [2, 8] was “suppressed”, the “increase in right ventricular systolic pressure (RVSP)” value [2, 8] was “suppressed” and the “body weight after the test” value ([2]; 3 weeks, Vehicle group 24.2±0.8 g) was 23.9 ± 0.7 g. The “increase in right ventricle/(left ventricle plus septum) weight ratio (RV/[LV+S])” value ([3]; vs control group (FIG. 4)) was “suppressed”, the “increase in right ventricular systolic pressure (RVSP)” value ([3]; vs control group (FIG. 4)) was “suppressed” and the “body weight after the test” value ([3]; Vehicle group 264.91±9.3 g) was 260.0 ± 11.1 g.
With `CCCc1cc(Cl)c(O)c(C(=O)c2ccc(Br)[nH]2)c1O` [CEL-14] the “day 2/day 0 cell number ratio” value ([1]; final concentration 1 μM) was 1.35, the “day 2/day 0 cell number ratio” value ([1]; final concentration 5 μM) was 0.88 and the “day 2/day 0 cell number ratio” value [1, 7] was 1.37.
With `CCCCCCc1cc(Cl)c(O)c(C(=O)c2cc(Br)c(Br)[nH]2)c1O` [CEL-13] the “day 2/day 0 cell number ratio” value ([1]; final concentration 1 μM) was 0.72, the “day 2/day 0 cell number ratio” value ([1]; final concentration 5 μM) was 0.51 and the “day 2/day 0 cell number ratio” value [1, 7] was 1.20.
For `CCCCCCCCc1cc(Cl)c(O)c(C(=O)c2cc(Cl)c(Cl)[nH]2)c1O` [CEL-7], the “day 2/day 0 cell number ratio” value ([1]; final concentration 1 μM) was 0.84, the “day 2/day 0 cell number ratio” value ([1]; final concentration 5 μM) was 0.52 and the “day 2/day 0 cell number ratio” value [1, 7] was 1.27.
With `O=C(c1cc(Cl)c(Cl)[nH]1)c1c(O)ccc(Cl)c1O` [CEL-2] the “day 2/day 0 cell number ratio” value ([1]; final concentration 1 μM) was 1.36, the “day 2/day 0 cell number ratio” value ([1]; final concentration 5 μM) was 0.87 and the “day 2/day 0 cell number ratio” value [1, 7] was 1.37.
In the case of `CCCCc1cc(Cl)c(O)c(C(=O)c2cc(Cl)c(Cl)[nH]2)c1O` [CEL-4], the “day 2/day 0 cell number ratio” value ([1]; final concentration 1 μM) is reported as 0.79, the “day 2/day 0 cell number ratio” value ([1]; final concentration 5 μM) is reported as 0.53 and the “day 2/day 0 cell number ratio” value [1, 7] is reported as 1.24.
With `CCCCCCCc1cc(Cl)c(O)c(C(=O)c2cc(Cl)c(Cl)[nH]2)c1O` [CEL-6] the “day 2/day 0 cell number ratio” value ([1]; final concentration 1 μM) was 0.77, the “day 2/day 0 cell number ratio” value ([1]; final concentration 5 μM) was 0.54 and the “day 2/day 0 cell number ratio” value [1, 7] was 1.23.
With `Cc1ccc(S(=O)(=O)N[C@@H](Cc2ccccc2)C(=O)CCl)cc1` [N-p-tosyl-L-phenylalanine chloromethyl ketone, reference compound] the “suppressive effect on the proliferation” value ([1]; final concentration 5 μM) was “not sufficiently suppressed”.
For `CCCCCCCCCCCCc1cc(Cl)c(O)c(C(=O)c2cc(Cl)c(Cl)[nH]2)c1O` [CEL-8], the “day 2/day 0 cell number ratio” value ([1]; final concentration 1 μM) was 0.74, the “day 2/day 0 cell number ratio” value ([1]; final concentration 5 μM) was 0.47 and the “day 2/day 0 cell number ratio” value [1, 7] was 1.13.
For `O=C(Nc1cc(C(F)(F)F)cc(C(F)(F)F)c1)c1cc(Cl)ccc1O` [IMD-0354, N-[3,5-bis(trifluoromethyl)phenyl]-5-chloro-2-hydroxybenzamide, reference compound], the NF-κB-inhibiting action [4] is given as “has an NF-κB-inhibiting action” and the “suppression of proliferation of pulmonary artery smooth muscle cells” value [5] is given as “suppresses the proliferation of pulmonary artery smooth muscle cells”.
For `CCCCCCc1cc(Cl)c(O)c(C(=O)c2cc(Cl)c(Cl)[nH]2)c1O` [CEL-1, celastramycin], the “day 2/day 0 cell number ratio” value ([1]; final concentration 1 μM) was 0.83, the “day 2/day 0 cell number ratio” value ([1]; final concentration 5 μM) was 0.52 and the “day 2/day 0 cell number ratio” value [1, 7] was 1.46. For the same molecule, the “binding to ZFC3H1” value [6] was “binds to a zinc finger protein ZFC3H1” and the NF-κB-inhibiting action [4] was “inhibit signal transduction in which a transcription factor NF-κB is involved”.
In the case of `CCCCCc1cc(Cl)c(O)c(C(=O)c2cc(Cl)c(Cl)[nH]2)c1O` [CEL-5], the “day 2/day 0 cell number ratio” value ([1]; final concentration 1 μM) is reported as 0.79, the “day 2/day 0 cell number ratio” value ([1]; final concentration 5 μM) is reported as 0.53 and the “day 2/day 0 cell number ratio” value [1, 7] is reported as 1.25.
In the case of `Cc1ccc(S(=O)(=O)N[C@@H](CCCCN)C(=O)CCl)cc1.Cl` [Nα-p-tosyl-L-lysine chloromethyl ketone hydrochloride, reference compound], the “suppressive effect on the proliferation” value ([1]; final concentration 5 μM) is reported as “not sufficiently suppressed”.
